Measured values reported in US10555950B2, “Bile acid recycling inhibitors for treatment of obesity and diabetes” (Satiogen Pharmaceuticals, Inc., priority 2008, dated 2020).
“Also recorded” adds a separate entry of the source.

Columns and labels:
[1] = system: diabetic db/db mice; assay: Oral Compound 100A/100B plus sitagliptin versus subcutaneous exenatide, blood glucose at 3 hours (Example 9); assay type: in vivo; settings: FIG. 10
[2] = system: male db/db mice; assay: In vivo assay for reduction in blood glucose levels (Example 7, Compound 100B with or without sitagliptin); settings: for reduction in plasma glucose from baseline: after 6 hours, oral
Experimental: Male db/db mice 8-9 weeks (approx 40 g) were fasted for 2 h. A combination of 1-[4-[4-[(4R,5R)-3,3-dibutyl-7-(dimethylamino)-2,3,4,5-tetrahydro-4-hydroxy-1,1-dioxido-1-benzothiepin-5-yl]phenoxy]butyl]4-aza-1-azoniabicyclo[2.2.2]octane methane sulfonate (Compound 100B) at doses of 0, 3, 30, 100 mg/kg in saline-water and 30 mg/kg sitagliptin (DPP-IV inhibitor) in a mixture of valine-pyrrolidine in water was administered orally to male db/db mice (n=6-11 per group). Blood sample (˜1 μl from tail for glucose level testing) was taken at t=−24 h, 0, 1, 3, 4, 5, 6 h and 24 h after administration.

[3] = system: plasma GLP-1 level; assay: Plasma GLP-1 levels in normal rats after oral ASBTI or metformin with DPP-IV inhibitor (Example 8); assay type: in vivo; settings: for plasma GLP-1 level, ASBTI in combination with sitagliptin: oral 3, 30, 100 mg/kg + 30 mg/kg sitagliptin; for plasma GLP-1 level, ASBTI in combination with sitagliptin / plasma GLP-1 level, ASBTI alone: 0-5 h; for plasma GLP-1 level, ASBTI alone: oral 3, 30, 100 mg/kg
Experimental: 12-week-old male HSD rats were fasted for 16 h and given oral dose of 0, 3, 30, 100 mg/kg of the ASBTI 1-[4-[4-[(4R,5R)-3,3-dibutyl-7-(dimethylamino)-2,3,4,5-tetrahydro-4-hydroxy-1,1-dioxido-1-benzothiepin-5-yl]phenoxy]butyl]4-aza-1-azoniabicyclo[2.2.2]octane methane sulfonate (Synthesized by Nanosyn Inc., CA, USA) or metformin (Control, 0, 3, 30, 100, 300 mg/kg) in saline and a dose of 30 mg/kg sitaglipin in a mixture of valine-pyrrolidine in water (n=5 per group). Blood samples in volume of 0.6 ml for each time point were taken from the caudal vein with a heparinized capillary tube 0, 1, 3 and 5 h after the administration of compounds and plasma GLP-1 level were determined. Aprotinin and 10 μl of DPP-IV inhibitor per ml of blood were used for blood sample preservation during 10 min centrifugation and for storage at −70° C. or below. GLP-1 (Active pM) was tested by Millipore ELISA Kits (Millipore Corporation, 290 Concord Road, Billerica, Mass.).

[4] = system: male db/db mice; assay: In vivo assay for reduction in blood glucose levels (Example 6, Compound 100A with or without sitagliptin); settings: for reduction in plasma glucose from baseline: after 6 hours
Experimental: FIG. 1 illustrates the change in plasma glucose level in diabetic db/db mice after oral administration of a combination of the ASBTI (−)-(3R,5R)-trans-3-butyl-3-ethyl-2,3,4,5-tetrahydro-7,8-dimethoxy-5-phenyl-1,4-benzothiazepine1,1-dioxide at doses of 0, 0.1, 1, 10 mg/kg and 30 mg/kg sitagliptin (DPP-IV inhibitor) and the ASBTI alone.
FIG. 9 illustrates the change in body weight 24 h after administration of the ASBTI (−)-(3R,5R)-trans-3-butyl-3-ethyl-2,3,4,5-tetrahydro-7,8-dimethoxy-5-phenyl-1,4-benzothiazepine1,1-dioxide (100A) at doses of 0, 0.1, 1, 10 mg/kg in combination with 30 mg/kg sitagliptin (DPP-IV inhibitor) and the ASBTI alone.
Male db/db mice 6-7 weeks (approx 30 g) were fasted for 2 h. A combination of (−)-(3R,5R)-trans-3-butyl-3-ethyl-2,3,4,5-tetrahydro-7,8-dimethoxy-5-phenyl-1,4-benzothiazepine 1,1-dioxide (Compound 100A) at doses of 0, 0.1, 1, 10, mg/kg in 10% of DMSO-water and 30 mg/kg sitagliptin (DPP-IV inhibitor) in a mixture of valine-pyrrolidine in water was administered orally to male db/db mice (n=7-10 per group). Blood sample (˜1 μl from tail for glucose level testing) was taken at t=−24 h, 0, 60, 180, 240, 300, 360 min and 24 h after administration.

[5] = system: diabetic db/db mice; assay: Plasma glucose in diabetic db/db mice after oral metformin plus sitagliptin (FIG. 3); assay type: in vivo; settings: combination of metformin and sitagliptin
Experimental: FIG. 3 illustrates the change in plasma glucose level in diabetic db/db mice after oral administration of a combination of metformin at doses of 0, 3, 30, 100, 300 mg/kg and 30 mg/kg sitagliptin (DPP-IV inhibitor).

[6] = FIG. 6, 7, listed as 1-[4-[4-[(4R,5R)-3,3-dibutyl-7-(dimethylamino)-2,3,4,5-tetrahydro-4-hydroxy-1,1-

CCCCC1(CCCC)CS(=O)(=O)c2ccc(N(C)C)cc2[C@@H](c2ccc(OCCCC[N+]34CCN(CC3)CC4)cc2)[C@H]1O.CS(=O)(=O)[O-] [Compound 100B, 1-[4-[4-[(4R,5R)-3,3-dibutyl-7-(dimethylamino)-2,3,4,5-tetrahydro-4-hydroxy-1,1-dioxido-1-benzothiepin-5-yl]phenoxy]butyl]4-aza-1-azoniabicyclo[2.2.2]octane methane sulfonate salt]
blood glucose lowering compared with exenatide ([1]; 3 hours after dosing, oral + 30 mg/kg sitagliptin versus single subcutaneous 0.02 mg/kg exenatide): reduces blood glucose levels more than a single subcutaneous injection of 0.02 mg/kg exenatide | change in body weight ([2]; 24 h after administration, 3-100 mg/kg with 30 mg/kg sitagliptin, FIG. 8): Weight loss | plasma glucose levels, ASBTI alone ([2]; ASBTI alone, 3, 30, 100 mg/kg oral, FIG. 4): lowers plasma glucose levels in dose dependent manner | reduction in plasma glucose from baseline ([2]; 3 mg/kg + 30 mg/kg sitagliptin): 5.6% | reduction in plasma glucose from baseline ([2]; 30 mg/kg + 30 mg/kg sitagliptin): 15% | reduction in plasma glucose from baseline ([2]; 100 mg/kg + 30 mg/kg sitagliptin): 42.3% | reduction of the elevated blood glucose levels ([2]; single oral administration, 3-100 mg/kg in combination with 30 mg/kg sitagliptin, compared to sitagliptin alone or vehicle, FIG. 2): dose-dependent reduction of the elevated blood glucose levels | plasma GLP-1 level, ASBTI in combination with sitagliptin ([3]; FIG. 6, 7): dose-dependent increase in plasma GLP-1 level | plasma GLP-1 level, ASBTI in combination with sitagliptin [3, 6]: dose-dependent increase in plasma GLP-1 level; also recorded: elevation in GLP-1 levels in a dose-dependent manner | plasma GLP-1 level, ASBTI alone ([3]; FIG. 6, 7): dose-dependent increase in plasma GLP-1 level | plasma GLP-1 level, ASBTI alone [3, 6]: dose-dependent increase in plasma GLP-1 level; also recorded: elevation in GLP-1 levels in a dose-dependent manner

N[C@@H](CC(=O)N1CCn2c(nnc2C(F)(F)F)C1)Cc1cc(F)c(F)cc1F [sitagliptin, (3R)-3-amino-1-[9-(trifluoromethyl)-1,4,7,8-tetrazabicyclo[4.3.0]nona-6,8-dien-4-yl]-4-(2,4,5-trifluorophenyl)butan-1-one, reference compound]
reduction in plasma glucose from baseline ([2]; 0 mg/kg ASBTI + 30 mg/kg sitagliptin): 5.5% | reduction in plasma glucose from baseline ([4]; 0 mg/kg ASBTI + 30 mg/kg sitagliptin, oral): 5.5%

CCCC[C@]1(CC)CS(=O)(=O)c2cc(OC)c(OC)cc2[C@@H](c2ccccc2)N1
change in body weight ([4]; 24 h after administration, 0.1-10 mg/kg with 30 mg/kg sitagliptin and ASBTI alone, FIG. 9): Weight loss | plasma glucose concentrations, ASBTI alone ([4]; ASBTI alone, oral, FIG. 1): lowers plasma glucose concentrations | reduction in plasma glucose from baseline ([4]; 01 mg/kg (so in the source) + 30 mg/kg sitagliptin, oral): 5.6% | reduction in plasma glucose from baseline ([4]; 1 mg/kg + 30 mg/kg sitagliptin, oral): 15% | reduction in plasma glucose from baseline ([4]; 10 mg/kg + 30 mg/kg sitagliptin, oral): 42.3% | reduction of the elevated blood glucose levels ([4]; single oral administration, 0.1-10 mg/kg in combination with 30 mg/kg sitagliptin, compared to sitagliptin alone or vehicle, FIG. 1): dose-dependent reduction of the elevated blood glucose levels

CCCC[C@]1(CC)CS(=O)(=O)c2cc(OC)c(OC)cc2[C@@H](c2ccccc2)N1 (relative stereo) [Compound 100A, (−)-(3R,5R)-trans-3-butyl-3-ethyl-2,3,4,5-tetrahydro-7,8-dimethoxy-5-phenyl-1,4-benzothiazepine1,1-dioxide]
reduction of plasma glucose levels ([1]; 3 hours post-dose, oral 10 mg/kg + 30 mg/kg sitagliptin): 35%

CN(C)C(=N)N=C(N)N [metformin, reference compound]
plasma GLP-1 level, metformin in combination with sitagliptin ([3]; oral metformin 30, 100, 300 mg/kg + 30 mg/kg sitagliptin, FIG. 5): dose-dependent increase in plasma GLP-1 level; also recorded: elevation in GLP-1 levels in plasma | duration of reduced plasma glucose concentrations [5]: about 6 hours
